Calls of active or inactive are those of the source. No cut-off for these calls is given here.
Legend:
Type in all cases: functional, cell-based
[1] = test system: BV-2; test: Anti-neuroinflammatory effect in mouse BV-2 cells assessed as suppression of LPS-mediated TNF-alpha secretion preincubated for 2 hrs followed by stimulation with LPS for 24 hrs by ELISA assay; conditions: dose 10-40 µM, time 26.0 hrs
[2] = test system: BV-2; test: Anti-neuroinflammatory effect in mouse BV-2 cells assessed as inhibition of LPS-mediated nuclear translocation of NF-kappaB p65 at 20 to 40 uM preincubated for 2 h followed by stimulation with LPS for 1 h by immunocytochemical analysis; conditions: dose 20-40 µM, time 3.0 hrs
[3] = test system: BV-2; test: Anti-neuroinflammatory effect in mouse BV-2 cells assessed as decrease in LPS-mediated p-p65 expression preincubated for 2 hrs followed by stimulation with LPS for 24 hrs by Western blot analysis; conditions: dose 10-40 µM, time 26.0 hrs
[4] = test system: BV-2; test: Anti-neuroinflammatory effect in mouse BV-2 cells assessed as decrease in LPS-mediated TLR4 expression at 10 to 40 uM preincubated for 2 hrs followed by stimulation with LPS for 24 hrs by Western blot analysis; conditions: dose 10-40 µM, time 26.0 hrs
[5] = test system: BV-2; test: Anti-neuroinflammatory effect in mouse BV-2 cells assessed as suppression of LPS-mediated IL-6 secretion preincubated for 2 hrs followed by stimulation with LPS for 24 hrs by ELISA assay; conditions: dose 10-40 µM, time 26.0 hrs

Cc1c2c(cc3c1CCOC3=O)CC(C)(C)C2
Activity [1]: Dose-dependent-effect; Exhibited Most Potent Effect
inhibition [2]: Active
Activity [3]: Dose-dependent-effect
Activity [4]: Active
Activity [5]: Dose-dependent-effect; Exhibited Most Potent Effect

— ChEMBL document CHEMBL6153101, “Chamilactones A and B, Sesquiterpenes from the Endophytic Fungus Chaetomium nigricolor F5” (J Nat Prod, 2025)
